Experimental data as given in BigSolDB 2.1.

OC/C=C/c1ccccc1
solubility (mole fraction)
Conditions | 253.15 K | 258.15 K | 263.15 K | 268.15 K | 273.15 K | 278.15 K | 283.15 K | 288.15 K | 293.15 K
in acetone | 0.28 | 0.322 | 0.363 | 0.414 | 0.47 | 0.526 | 0.579 | 0.625 | 0.674
in ethanol | 0.22 | 0.256 | 0.298 | 0.342 | 0.404 | 0.456 | 0.52 | 0.59 | 0.652
in ethyl acetate | 0.208 | 0.243 | 0.29 | 0.351 | 0.416 | 0.486 | 0.547 | 0.61 | 0.659
in isobutanol | 0.072 | 0.105 | 0.165 | 0.217 | 0.287 | 0.366 | 0.431 | 0.498 | 0.576
in isopropanol | 0.195 | 0.242 | 0.288 | 0.33 | 0.394 | 0.446 | 0.512 | 0.582 | 0.649
in methanol | 0.222 | 0.24 | 0.269 | 0.307 | 0.351 | 0.401 | 0.466 | 0.536 | 0.61
in methyl acetate | 0.172 | 0.225 | 0.27 | 0.326 | 0.392 | 0.452 | 0.523 | 0.591 | 0.646
in n-butanol | 0.125 | 0.162 | 0.214 | 0.269 | 0.342 | 0.412 | 0.479 | 0.553 | 0.608
in n-hexane | 0.00446 | 0.00664 | 0.0104 | 0.0143 | 0.0194 | 0.0248 | 0.0294 | 0.0352 | 0.0418
in n-propanol | 0.174 | 0.213 | 0.266 | 0.313 | 0.373 | 0.433 | 0.496 | 0.567 | 0.634
in sec-butanol | 0.089 | 0.142 | 0.191 | 0.255 | 0.321 | 0.395 | 0.459 | 0.53 | 0.592

O=C(O)c1ccccc1O
solubility (mole fraction)
Conditions | 298.15 K | 303.15 K | 308.15 K | 313.15 K | 318.15 K
in acetic acid | 0.0531 | 0.0617 | 0.0709 | 0.0785 | 0.0903
in acetone | 0.175 | 0.196 | 0.203 | 0.218 | 0.231
in ethyl acetate | 0.13 | 0.14 | 0.154 | 0.165 | 0.179
in methanol | 0.123 | 0.137 | 0.15 | 0.163 | 0.172
